{"source": "patent US20250230193A1", "about": "“CYCLIC COMPOUND HAVING SELECTIVE KRAS INHIBITORY EFFECT ON HRAS AND NRAS” (CHUGAI SEIYAKU KABUSHIKI KAISHA, priority 2022, published 2025)", "key": {"[1]": {"molecular_target": "GDP-bound HRAS wild-type protein (Homo sapiens, UniProt P01112)", "sequence (P01112 whole entry)": "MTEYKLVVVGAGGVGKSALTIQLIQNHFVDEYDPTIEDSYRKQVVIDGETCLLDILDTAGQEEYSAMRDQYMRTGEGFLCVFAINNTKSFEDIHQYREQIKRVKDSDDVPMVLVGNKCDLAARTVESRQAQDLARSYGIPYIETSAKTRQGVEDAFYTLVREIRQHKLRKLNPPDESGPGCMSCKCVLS", "assay": "Binding to HRAS by surface plasmon resonance (SPR), Single Cycle Kinetics", "details": "SPR, GDP-bound HRAS wild-type vs GDP-bound KRAS wild-type"}, "[2]": {"molecular_target": "GDP-bound NRAS wild-type protein (Homo sapiens, UniProt P01111)", "sequence (P01111 whole entry)": "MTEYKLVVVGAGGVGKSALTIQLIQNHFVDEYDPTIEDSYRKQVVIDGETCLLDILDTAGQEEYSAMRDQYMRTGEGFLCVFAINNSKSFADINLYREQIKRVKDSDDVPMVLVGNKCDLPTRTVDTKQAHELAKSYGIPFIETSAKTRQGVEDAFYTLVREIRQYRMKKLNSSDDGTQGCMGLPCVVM", "assay": "Binding to NRAS by surface plasmon resonance (SPR), Single Cycle Kinetics", "details": "SPR, GDP-bound NRAS wild-type vs GDP-bound KRAS wild-type"}}, "data": [{"compound": "CCOC[C@H]1C(=O)N[C@@H]([C@@H](C)CC)C(=O)N(C)CC(=O)N(C)[C@H]2C/C=C\\CCN(C2=O)[C@@H](Cc2ccc(C)cc2)C(=O)N(C)CC(=O)N[C@@H](CCc2cc(F)c(C(F)(F)F)c(F)c2)C(=O)N2C[C@@H](C)C[C@H]2C(=O)NC2(CC(C)(C)C2)C(=O)N(C)[C@@H](C2CCCC2)C(=O)N(C)[C@H](C(=O)N(CC)CC)CC(=O)N1C", "note": "[PP2407]", "values": [{"measurement": "HRAS/KRAS (ratio of KD value with respect to HRAS to KD value with respect to KRAS)", "setting": "[1]", "result": "A (a compound having 10 or more and less than 20 is denoted as A)"}, {"measurement": "NRAS/KRAS (ratio of KD value with respect to NRAS to KD value with respect to KRAS)", "setting": "[2]", "result": "A (a compound having 10 or more and less than 20 is denoted as A)"}]}, {"compound": "CCOC[C@H]1C(=O)N[C@@H]([C@@H](C)CC)C(=O)N(C)CC(=O)N(C)[C@H]2C/C=C\\CCN(C2=O)[C@@H](Cc2ccc(C)cc2)C(=O)N(C)CC(=O)N[C@@H](CCc2cc(F)c(C(F)(F)F)c(F)c2)C(=O)N2C[C@H](OCC)C[C@H]2C(=O)NC2(CC(C)(C)C2)C(=O)N(C)[C@@H](C2CCCC2)C(=O)N(C)[C@H](C(=O)N(CC)CC)CC(=O)N1C", "note": "[PP2408]", "values": [{"measurement": "HRAS/KRAS (ratio of KD value with respect to HRAS to KD value with respect to KRAS)", "setting": "[1]", "result": "A (a compound having 10 or more and less than 20 is denoted as A)"}, {"measurement": "NRAS/KRAS (ratio of KD value with respect to NRAS to KD value with respect to KRAS)", "setting": "[2]", "result": "A (a compound having 10 or more and less than 20 is denoted as A)"}]}, {"compound": "CC[C@H](C)[C@@H]1NC(=O)[C@H](CC(C)C)N(C)C(=O)C[C@@H](C(=O)N(C)C)N(C)C(=O)[C@H](C2CCCC2)N(C)C(=O)C2(CC(C)(C)C2)NC(=O)[C@@H]2C[C@H](C)CN2C(=O)[C@H](CCc2ccc(C(F)(F)F)c(OC)c2)NC(=O)CN(C)C(=O)[C@H](Cc2ccc(C)cc2)N2CC/C=C\\C[C@@H](C2=O)N(C)C(=O)[C@@H]2CCCN2C1=O", "note": "[PP2409]", "values": [{"measurement": "HRAS/KRAS (ratio of KD value with respect to HRAS to KD value with respect to KRAS)", "setting": "[1]", "result": "B (a compound having 3 or more and less than 10 is denoted as B)"}, {"measurement": "NRAS/KRAS (ratio of KD value with respect to NRAS to KD value with respect to KRAS)", "setting": "[2]", "result": "A (a compound having 10 or more and less than 20 is denoted as A)"}]}, {"compound": "CC[C@H](C)[C@@H]1NC(=O)[C@H](CC(C)C)N(C)C(=O)C[C@@H](C(=O)N(C)CC)N(C)C(=O)[C@H](C2CCCC2)N(C)C(=O)C2(CC(C)(C)C2)NC(=O)[C@@H]2C[C@H](C)CN2C(=O)[C@H](CCc2ccc(C(F)(F)F)c(OC)c2)NC(=O)CN(C)C(=O)[C@H](Cc2ccc(C)cc2)N2CC/C=C\\C[C@@H](C2=O)N(C)C(=O)[C@@H]2CCCN2C1=O", "note": "[PP2410]", "values": [{"measurement": "HRAS/KRAS (ratio of KD value with respect to HRAS to KD value with respect to KRAS)", "setting": "[1]", "result": "A (a compound having 10 or more and less than 20 is denoted as A)"}, {"measurement": "NRAS/KRAS (ratio of KD value with respect to NRAS to KD value with respect to KRAS)", "setting": "[2]", "result": "A (a compound having 10 or more and less than 20 is denoted as A)"}]}, {"compound": "CC[C@H](C)[C@@H]1NC(=O)[C@H](CC(C)C)N(C)C(=O)C[C@@H](C(=O)N(C)CC)N(C)C(=O)[C@H](C2CCCC2)N(C)C(=O)C2(CC(C)(C)C2)NC(=O)[C@@H]2C[C@H](C)CN2C(=O)[C@H](CCc2cc(F)c(C(F)(F)F)c(F)c2)NC(=O)CN(C)C(=O)[C@H](Cc2ccc(C)cc2)N2CC/C=C\\C[C@@H](C2=O)N(C)C(=O)[C@@H]2CCCN2C1=O", "note": "[PP2411]", "values": [{"measurement": "HRAS/KRAS (ratio of KD value with respect to HRAS to KD value with respect to KRAS)", "setting": "[1]", "result": "A (a compound having 10 or more and less than 20 is denoted as A)"}, {"measurement": "NRAS/KRAS (ratio of KD value with respect to NRAS to KD value with respect to KRAS)", "setting": "[2]", "result": "A (a compound having 10 or more and less than 20 is denoted as A)"}]}, {"compound": "CCO[C@H](C)[C@@H]1NC(=O)[C@H](CC(C)C)N(C)C(=O)C[C@@H](C(=O)N(C)C)N(C)C(=O)[C@H](C2CCCC2)N(C)C(=O)C2(CC(C)(C)C2)NC(=O)[C@@H]2C[C@H](C)CN2C(=O)[C@H](CCc2ccc(C(F)(F)F)c(OC)c2)NC(=O)CN(C)C(=O)[C@H](Cc2ccc(C)cc2)N2CC/C=C\\C[C@@H](C2=O)N(C)C(=O)CN(C)C1=O", "note": "[PP2412]", "values": [{"measurement": "HRAS/KRAS (ratio of KD value with respect to HRAS to KD value with respect to KRAS)", "setting": "[1]", "result": "B (a compound having 3 or more and less than 10 is denoted as B)"}, {"measurement": "NRAS/KRAS (ratio of KD value with respect to NRAS to KD value with respect to KRAS)", "setting": "[2]", "result": "A (a compound having 10 or more and less than 20 is denoted as A)"}]}]}
